Laboratory results reported in the supplement of paper PMC13380429.

Columns and labels:
[1] = test system: A549-ACE2 infected with SARS-CoV-2; experiment: cell count relative to DMSO; higher = less toxic; details: 24 h
[2] = test system: Caco-2; experiment: cell viability relative to DMSO; higher = less toxic; details: 72 h
[3] = test system: Calu-3; experiment: as above; details: 72 h
[4] = test system: HepG2; experiment: as above; details: 72 h
[5] = test system: U2OS; experiment: as above; details: 72 h
[6] = test system: Vero E6; experiment: as above; details: 72 h
[7] = test system: A549-ACE2 infected with SARS-CoV-2; experiment: SARS-CoV-2 infection rate relative to DMSO; higher = more infection; details: 24 h
[8] = test system: A549-ACE2; experiment: drug-induced phospholipidosis relative to tamoxifen; higher = more phospholipidosis
[9] = test system: A549-ACE2 infected with SARS-CoV-2; experiment: morphology score (similarity to uninfected cells); higher = more like uninfected cells; details: 24 h
[10] = test system: Caco-2; experiment: relative viability EC50 (midpoint between 100% and the lowest measured viability); higher = less toxic; details: 72 h
[11] = test system: Calu-3; experiment: as above; details: 72 h
[12] = test system: U2OS; experiment: as above; details: 72 h
[13] = test system: Vero E6; experiment: as above; details: 72 h
[14] = test system: Caco-2; experiment: drug sensitivity score (DSS) for viability; higher = more toxic; extreme values may be limits of the assay; details: 72 h
[15] = test system: Calu-3; experiment: as above; details: 72 h
[16] = test system: HepG2; experiment: as above; details: 72 h
[17] = test system: U2OS; experiment: as above; details: 72 h
[18] = test system: Vero E6; experiment: as above; details: 72 h
[19] = test system: A549-ACE2; experiment: phospholipidosis EC50; higher = less potent phospholipidosis inducer
[20] = test system: HepG2; experiment: relative viability EC50 (midpoint between 100% and the lowest measured viability); higher = less toxic; details: 72 h

Cn1cc(-c2cnn3c(N)c(Br)c([C@@H]4CCCNC4)nc23)cn1
Details	SARS-CoV-2 infection rate, [7] [%]	cell count, [1] [%]	cell viability, [2] [%]	cell viability, [3] [%]	cell viability, [4] [%]	cell viability, [5] [%]	cell viability, [6] [%]	morphology score, [9]
1 nM	–	–	92.5	99.2	98.8	98.3	102	–
10 nM	–	–	100	95.1	101	92	102	–
100 nM	–	–	93.4	97.6	88.7	100	98.2	–
0.3 µM	102	99	–	–	–	–	–	-0.17
1000 nM	–	–	97.7	93.3	75	73.4	95.7	–
3 µM	87	110	–	–	–	–	–	0.41
10 µM	50	106	–	–	–	–	–	0.67
10000 nM	–	–	86.2	100	52	13.7	82.1	–
30 µM	13	79	–	–	–	–	–	0.84

drug-induced phospholipidosis [%], [8]
Details	0.3 µM	0.833333 µM	3.33333 µM	6.66667 µM	10 µM	30 µM
24 h	0.22	3.23	6.07	18.9	19.9	52.2
48 h	3.9	4.18	8.86	16.4	18.3	60.6
72 h	6.85	4.55	10.4	11.1	15.4	–

Details	drug sensitivity score	relative viability EC50 [µM]
[10]	–	> 10
[11]	–	> 10
[12]	–	1.38
[13]	–	> 10
[14]	0	–
[15]	0	–
[16]	5.7	–
[17]	8.7	–
[18]	0.9	–

CN(C)C[C@H](O)Cn1c2ccc(Br)cc2c2cc(Br)ccc21 (racemic) [wiskostatin]
Details	SARS-CoV-2 infection rate [%]	cell count [%]	cell viability [%]	morphology score	phospholipidosis EC50 [µM]
[1], 0.1 µM	–	102	–	–	–
[1], 0.3 µM	–	100	–	–	–
[1], 1 µM	–	104	–	–	–
[1], 3 µM	–	119	–	–	–
[2], 1 nM	–	–	103	–	–
[2], 10 nM	–	–	105	–	–
[2], 100 nM	–	–	100	–	–
[2], 1000 nM	–	–	97.2	–	–
[2], 10000 nM	–	–	35	–	–
[3], 1 nM	–	–	110	–	–
[3], 10 nM	–	–	95.4	–	–
[3], 100 nM	–	–	123	–	–
[3], 1000 nM	–	–	104	–	–
[3], 10000 nM	–	–	20.7	–	–
[4], 1 nM	–	–	108	–	–
[4], 10 nM	–	–	105	–	–
[4], 100 nM	–	–	107	–	–
[4], 1000 nM	–	–	107	–	–
[4], 10000 nM	–	–	27.2	–	–
[5], 1 nM	–	–	103	–	–
[5], 10 nM	–	–	98.8	–	–
[5], 100 nM	–	–	104	–	–
[5], 1000 nM	–	–	99.4	–	–
[5], 10000 nM	–	–	70.1	–	–
[6], 1 nM	–	–	110	–	–
[6], 10 nM	–	–	110	–	–
[6], 100 nM	–	–	106	–	–
[6], 1000 nM	–	–	100	–	–
[6], 10000 nM	–	–	48.2	–	–
[7], 0.1 µM	107	–	–	–	–
[7], 0.3 µM	98	–	–	–	–
[7], 1 µM	87	–	–	–	–
[7], 3 µM	46	–	–	–	–
[9], 0.1 µM	–	–	–	0.02	–
[9], 0.3 µM	–	–	–	0.05	–
[9], 1 µM	–	–	–	0.24	–
[9], 3 µM	–	–	–	0.74	–
[19], 24 h	–	–	–	–	2.73
[19], 48 h	–	–	–	–	3.44
[19], 72 h	–	–	–	–	4.3

drug-induced phospholipidosis [%], [8]
Details	0.3 µM	0.833333 µM	3.33333 µM	6.66667 µM	10 µM
24 h	5.24	11.9	79.4	108	120
48 h	4.43	7.26	89.6	176	184
72 h	2.67	8.55	92.3	196	231

Details	drug sensitivity score	relative viability EC50 [µM]
[10]	–	2.85
[11]	–	3.47
[13]	–	3.2
[14]	3.9	–
[15]	4	–
[16]	3.5	–
[17]	1.4	–
[18]	2.7	–
[20]	–	3.62

CCc1cc2cc(OC)c(OC)cc2c(Cc2ccccc2)n1 [moxaverine]
Details	SARS-CoV-2 infection rate, [7] [%]	cell count, [1] [%]	cell viability, [2] [%]	cell viability, [3] [%]	cell viability, [4] [%]	cell viability, [5] [%]	cell viability, [6] [%]	morphology score, [9]
1 nM	–	–	89	95.7	101	101	96.5	–
10 nM	–	–	85.6	92.5	104	95.1	95.4	–
100 nM	–	–	104	95.9	98.5	99.6	92.2	–
0.3 µM	104	99	–	–	–	–	–	-0.15
1000 nM	–	–	90.9	96	103	95.5	95	–
3 µM	95	103	–	–	–	–	–	0.3
10 µM	71	106	–	–	–	–	–	0.51
10000 nM	–	–	105	100	106	96.8	107	–
30 µM	52	109	–	–	–	–	–	0.66

drug-induced phospholipidosis [%], [8]
Details	0.3 µM	0.833333 µM	3.33333 µM	6.66667 µM	10 µM	30 µM
24 h	1.12	1.68	0.22	1.38	2.55	6.92
48 h	3.81	1.7	2.59	3.75	3.82	13.6
72 h	4.52	0.631	3.05	3.57	2.15	15.7

Details	drug sensitivity score	relative viability EC50 [µM]
[10]	–	> 10
[11]	–	> 10
[12]	–	> 10
[13]	–	> 10
[14]	0	–
[15]	0	–
[16]	0	–
[17]	0	–
[18]	0	–
[20]	–	> 10

c1cc(CN2CCCNCCNCCCNCC2)ccc1CN1CCCNCCNCCCNCC1 [plerixafor]
cell viability [%]
Details	[2]	[3]	[4]	[5]	[6]
1 nM	101	90.7	92.9	101	104
10 nM	96.1	104	104	99.8	99.1
100 nM	97.5	97.3	88.4	97.9	104
1000 nM	101	94.4	106	97.2	101
10000 nM	95.2	105	96.5	98.1	100

Details	drug sensitivity score	relative viability EC50 [µM]
[10]	–	> 10
[11]	–	> 10
[12]	–	> 10
[13]	–	> 10
[14]	0	–
[15]	0	–
[16]	0	–
[17]	0	–
[18]	0	–
[20]	–	> 10

CC(=O)Oc1cc2c(s1)CCN(C(C(=O)C1CC1)c1ccccc1F)C2 (configuration not stated) [prasugrel]
cell viability [%]
Details	[2]	[3]	[4]	[5]	[6]
1 nM	102	101	105	104	100
10 nM	101	103	95	98	93.6
100 nM	93	102	106	102	96.2
1000 nM	105	97.3	103	97.9	96.2
10000 nM	94.1	106	93.3	98.8	93.2

Details	drug sensitivity score	relative viability EC50 [µM]
[10]	–	> 10
[11]	–	> 10
[12]	–	> 10
[13]	–	> 10
[14]	0	–
[15]	0	–
[16]	0	–
[17]	0	–
[18]	0	–
[20]	–	> 10
